{"source": "paper PMC5038302", "about": "(Antimicrobial Agents and Chemotherapy, 2016)", "key": {"FEZ-1 [1]": {"molecular_target": "T1, FEZ-1 (Fluoribacter gormanii, UniProt Q9K578)", "T1 sequence (Q9K578 21-282 limits assumed)": "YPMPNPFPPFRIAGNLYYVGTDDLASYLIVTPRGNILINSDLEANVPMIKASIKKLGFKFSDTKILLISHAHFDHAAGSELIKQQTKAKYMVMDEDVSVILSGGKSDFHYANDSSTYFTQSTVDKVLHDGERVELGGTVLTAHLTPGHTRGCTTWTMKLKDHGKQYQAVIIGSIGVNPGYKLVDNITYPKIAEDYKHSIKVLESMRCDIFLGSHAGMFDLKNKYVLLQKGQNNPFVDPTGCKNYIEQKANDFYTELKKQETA", "type": "binding, Fluoribacter (Legionella) gormanii", "conditions": "FEZ-1 80 μM, avibactam 4 mM, Tris-D11 50 mM pH 7.5"}, "VIM-2 [2]": {"molecular_target": "T2, VIM-2 (Escherichia coli, UniProt Q5U7L7)", "type": "binding", "conditions": "VIM-2 80 μM, avibactam 4 mM, Tris-D11 50 mM pH 7.5"}, "VIM-4 [3]": {"molecular_target": "T3, VIM-4 (Pseudomonas aeruginosa, UniProt Q8KRJ3)", "conditions": "VIM-4, 240 min, Raman spectroscopy"}, "[4]": {"assay": "Stability of avibactam in buffer without enzyme (NMR control)", "conditions": "buffer (Tris-D11 50 mM, pH 7.5)"}, "SPM-1 [5]": {"system": "SPM-1", "type": "biochemical"}, "CphA": {"molecular_target": "CphA (Aeromonas hydrophila, UniProt P26918)", "sequence (P26918 28-254)": "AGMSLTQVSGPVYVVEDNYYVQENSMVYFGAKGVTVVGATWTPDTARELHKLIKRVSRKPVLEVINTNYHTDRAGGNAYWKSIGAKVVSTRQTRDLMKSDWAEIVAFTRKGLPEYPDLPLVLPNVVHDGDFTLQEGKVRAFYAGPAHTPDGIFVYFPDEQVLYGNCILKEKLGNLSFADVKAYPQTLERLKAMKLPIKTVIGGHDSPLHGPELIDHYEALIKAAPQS", "type": "binding", "conditions": "CphA 80 μM, avibactam 4 mM, Tris-D11 50 mM pH 7.5"}, "VIM-4 [6]": {"molecular_target": "T3, VIM-4", "conditions": "1 mM avibactam (600 μl), 12 μg VIM-4, 5 mM HEPES pH 7.5, 20 μM ZnCl2, 4 h at 37°C"}, "NDM-1 [7]": {"molecular_target": "T4, NDM-1 (Klebsiella pneumoniae, UniProt C7C422)", "T4 sequence (C7C422 43-270 limits assumed, looked up, species assumed)": "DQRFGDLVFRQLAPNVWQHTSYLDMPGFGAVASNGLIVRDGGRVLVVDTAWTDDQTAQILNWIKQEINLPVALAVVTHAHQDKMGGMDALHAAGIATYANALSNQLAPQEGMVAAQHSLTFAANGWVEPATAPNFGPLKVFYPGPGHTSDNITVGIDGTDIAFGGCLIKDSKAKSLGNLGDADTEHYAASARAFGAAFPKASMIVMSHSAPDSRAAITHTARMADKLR", "type": "binding", "conditions": "avibactam 4 mM, Tris-D11 50 mM pH 7.5"}, "VIM-4 [8]": {"molecular_target": "T3, VIM-4", "type": "biochemical", "conditions": "read-out: Approximate Ki value (reflecting Km), from a single avibactam concentration (1 mM), ceftazidime 30 µM substrate"}, "FEZ-1 [9]": {"molecular_target": "T1, FEZ-1", "assay": "biochemical", "set-up": "species or system Fluoribacter (Legionella) gormanii", "conditions": "Approximate Ki (= Km) value, from a single avibactam concentration (1 mM), ceftazidime 30 µM substrate"}, "VIM-4 [10]": {"molecular_target": "T3, VIM-4", "type": "binding", "conditions": "VIM-4 80 μM, avibactam 4 mM, Tris-D11 50 mM pH 7.5"}, "VIM-2 [11]": {"molecular_target": "T2, VIM-2", "assay": "biochemical"}, "VIM-4 [12]": {"molecular_target": "T3, VIM-4", "conditions": "still extremely slow by normal β-lactamase standards"}, "BcII": {"molecular_target": "BcII (Bacillus cereus, UniProt P04190)", "sequence (P04190 31-257)": "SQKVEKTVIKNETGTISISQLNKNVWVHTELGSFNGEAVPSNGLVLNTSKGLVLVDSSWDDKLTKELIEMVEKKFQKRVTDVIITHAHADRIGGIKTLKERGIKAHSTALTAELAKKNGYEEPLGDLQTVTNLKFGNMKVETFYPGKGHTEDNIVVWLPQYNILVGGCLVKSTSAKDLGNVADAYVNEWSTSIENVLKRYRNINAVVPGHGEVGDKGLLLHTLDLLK", "type": "binding", "conditions": "BcII 80 μM, avibactam 4 mM, Tris-D11 50 mM pH 7.5", "experimental": "(§1) Typical experimental parameters for Carr-Purcell-Meiboom-Gill (CPMG) NMR spectroscopy were the following: total echo time, 40 ms; relaxation delay, 2 s; and number of transients, 264 ([31]). The PROJECT-CPMG sequence (90°x-[τ-180°y-τ-90°y-τ-180°y-τ]n-acq) was applied. Water suppression was achieved by presaturation. Prior to Fourier transformation, the data were multiplied with an exponential function with 3-Hz line broadening.\n(§2) For ^1H excitation sculpting suppression with perfect echo NMR experiments, spectra were typically obtained using 256 scans and a relaxation delay of 1 s ([32]). A 2-ms sinc pulse was used for water suppression. Prior to Fourier transformation, data were multiplied with an exponential function with 2-Hz line broadening.\n(§3) For water-ligand observed gradient spectroscopy (wLOGSY) analyses, typical experimental parameters were the following: mixing time, 1 s; relaxation delay, 2 s; number of transients, 256 ([33]). Solvent excitation was achieved using a 16-ms 180° selective rectangular shape pulse with 1,000 points (Squa100.1000) set at the H2O frequency. Water suppression was achieved by a 2-ms sinc pulse (Sinc1.1000) at the H2O frequency."}, "SPM-1 [13]": {"system": "SPM-1", "type": "binding", "experimental": "as §1, §2, §3"}, "IMP-1 [14]": {"molecular_target": "T5, IMP-1 (Serratia marcescens, UniProt P52699)", "T5 sequence (P52699 19-246 limits assumed)": "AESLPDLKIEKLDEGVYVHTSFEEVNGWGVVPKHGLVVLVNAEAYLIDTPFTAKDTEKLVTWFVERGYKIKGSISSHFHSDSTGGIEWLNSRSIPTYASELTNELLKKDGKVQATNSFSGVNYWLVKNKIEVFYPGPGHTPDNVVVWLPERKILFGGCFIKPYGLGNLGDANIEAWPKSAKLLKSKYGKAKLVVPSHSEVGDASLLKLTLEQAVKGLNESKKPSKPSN", "assay": "biochemical", "conditions": "Approximate Ki (= Km) value, from a single avibactam concentration (1 mM), ceftazidime 30 µM substrate"}, "NDM-1 [15]": {"molecular_target": "T4, NDM-1", "conditions": "NDM-1 0.022 mM; still extremely slow by normal β-lactamase standards"}, "VIM-4 [16]": {"molecular_target": "T3, VIM-4", "conditions": "LC-MS"}, "NDM-1 [17]": {"molecular_target": "T4, NDM-1", "assay": "biochemical"}, "[18]": {"system": "NC(=O)[C@@H]1CC[C@@H]2CN1C(=O)N2OS(=O)(=O)O", "assay": "purified protein, by the assay type"}, "FEZ-1 [19]": {"molecular_target": "T1, FEZ-1", "set-up": "method as in PMID 11257043", "conditions": "reported conditions different, read-out: ceftazidime Km; cited from earlier work"}, "SPM-1 [20]": {"system": "SPM-1", "set-up": "method as in PMID 12543663", "conditions": "reported conditions different, read-out: ceftazidime Km; cited from earlier work"}, "NDM-1 [21]": {"molecular_target": "T4, NDM-1", "conditions": "cited from earlier work"}, "VIM-2 [22]": {"molecular_target": "T2, VIM-2", "conditions": "cited from earlier work"}, "IMP-1 [23]": {"molecular_target": "T5, IMP-1", "conditions": "cited from earlier work"}, "[24]": {"system": "all of the MBLs (VIM-2, VIM-4, SPM-1, NDM-1, IMP-1, FEZ-1)", "assay": "Complete time courses of ceftazidime hydrolysis", "type": "biochemical", "conditions": "all MBLs incl. VIM-4; concluded from quasi first-order complete time courses, 5 mM HEPES pH 7.5"}}, "note": "Several values for one entry are separate records, joined by “and”; a condition that tells them apart may be missing. Equal values may be shown once. Read-outs that look alike come from different tables or passages of the source.", "data": [{"compound": "NC(=O)[C@@H]1CC[C@@H]2CN1C(=O)N2OS(=O)(=O)O", "note": "[avibactam]", "values": [{"measurement": "Binding by 1H CPMG NMR", "setting": "FEZ-1 [1]", "value": "weak binding"}, {"measurement": "Binding by 1H CPMG NMR", "setting": "VIM-2 [2]", "value": "weak binding"}, {"measurement": "Amount of sulfate produced from avibactam (of the total avibactam product)", "setting": "VIM-4 [3]", "value": "< 15", "unit": "%"}, {"measurement": "Hydrolysis of avibactam without enzyme", "setting": "[4]", "value": "did not lead to detectable product levels"}, {"measurement": "Effect of avibactam on SPM-1-catalyzed ceftazidime hydrolysis", "setting": "SPM-1 [5]; 1 mM avibactam, ceftazidime 30 µM", "value": "apparent activation"}, {"measurement": "Residual activity", "setting": "SPM-1 [5]; ceftazidime (30 µM) in the presence of 1 mM avibactam, HEPES buffer, 30°C", "value": "140 + 15%"}, {"measurement": "Binding by 1H CPMG NMR", "setting": "CphA", "value": "did not observe binding"}, {"measurement": "Avibactam hydrolyzed (from absorbance at 230 nm)", "setting": "VIM-4 [6]", "value": "~70", "unit": "%"}, {"measurement": "Binding by 1H CPMG NMR", "setting": "NDM-1 [7]", "value": "weak binding"}, {"measurement": "Ki", "setting": "VIM-4 [8]", "value": "> 5000", "unit": "µM"}, {"measurement": "Ki", "setting": "FEZ-1 [9]", "value": "2300 µM and ~2300 µM"}, {"measurement": "Binding by 1H CPMG NMR", "setting": "VIM-4 [10]", "value": "weak binding"}, {"measurement": "Ki", "setting": "VIM-2 [11]", "value": "> 5000", "unit": "µM"}, {"measurement": "Avibactam hydrolysis observed by NMR", "setting": "VIM-4 [12]", "value": "more efficient hydrolysis"}, {"measurement": "Binding by 1H CPMG NMR", "setting": "BcII", "value": "did not observe binding"}, {"measurement": "Binding by 1H CPMG NMR", "setting": "SPM-1 [13]; SPM-1 80 μM, avibactam 4 mM, Tris-D11 50 mM pH 7.5", "value": "weak binding"}, {"measurement": "Ki", "setting": "IMP-1 [14]", "value": "1700 µM and ~1700 µM"}, {"measurement": "Avibactam hydrolysis observed by NMR", "setting": "NDM-1 [15]", "value": "more efficient hydrolysis"}, {"measurement": "Reduction of the avibactam MS signal after VIM-4-catalyzed hydrolysis", "setting": "VIM-4 [16]", "value": "~50", "unit": "fold"}, {"measurement": "Ki", "setting": "NDM-1 [17]", "value": "> 5000", "unit": "µM"}]}, {"compound": "FEZ-1 (Fluoribacter gormanii)", "values": [{"measurement": "kcat/Km", "setting": "[18]", "value": "70 ± 15", "unit": "M⁻¹ s⁻¹"}, {"measurement": "kcat/Km", "setting": "[18]; pH 7.5, 30.0 °C", "value": "70 ± 15", "unit": "M⁻¹ s⁻¹"}]}, {"compound": "CC(C)(O/N=C(\\C(=O)N[C@@H]1C(=O)N2C(C(=O)[O-])=C(C[n+]3ccccc3)CS[C@H]12)c1csc(N)n1)C(=O)O", "note": "[ceftazidime]", "values": [{"measurement": "Km", "setting": "FEZ-1 [19]", "value": "> 1000", "unit": "µM"}, {"measurement": "Km", "setting": "SPM-1 [20]", "value": 46, "unit": "µM"}, {"measurement": "Km", "setting": "NDM-1 [21]", "value": 180, "unit": "µM"}, {"measurement": "Km", "setting": "VIM-2 [22]", "value": 72, "unit": "µM"}, {"measurement": "Km", "setting": "IMP-1 [23]", "value": 46, "unit": "µM"}, {"measurement": "Km", "setting": "[24]", "value": "> 30", "unit": "µM"}]}, {"compound": "NC(=O)[C@@H]1CC[C@@H](NOS(=O)(=O)O)CN1", "note": "[hydrolyzed product(s)]", "values": [{"measurement": "Binding of products of avibactam by wLOGSY NMR", "setting": "SPM-1 [13]; SPM-1, hydrolyzed product NOE sign opposite to that of SPM-1 (free ligand)", "value": "no evidence for binding"}]}]}
